Experimental data taken from ChEMBL document CHEMBL5390198, “Scaffold hopping of N-benzyl-3,4,5-trimethoxyaniline: 5,6,7-Trimethoxyflavan derivatives as novel potential anticancer agents modulating hippo signaling pathway” (2023).
Blank lines part the entries; values can stand above or below the molecule they belong to. Active and inactive are the calls of the source. The rule behind the calls is not given here.

Experiments:
PC-3 [1] = experiment: Growth inhibition of human PC-3 cells measured after 24 to 72 hrs by SRB method; type: functional; details: time 24-72 hrs
DU-145 [2] = experiment: Growth inhibition of human DU-145 cells measured after 24 to 72 hrs by SRB method; type: functional; details: time 24-72 hrs
MDA-MB-435 = experiment: Growth inhibition of human MDA-MB-435 cells measured after 24 to 72 hrs by SRB method; type: functional; details: time 24-72 hrs
SK-MEL-28 = experiment: Growth inhibition of human SK-MEL-28 cells measured after 24 to 72 hrs by SRB method; type: functional; details: time 24-72 hrs
A549 [3] = experiment: cells; type: functional; details: Homo sapiens, time 24-72 hrs
Description: Antiproliferative activity against human A549 cells assessed as inhibition of cell growth at 10 uM measured after 24 to 72 hrs by SRB method relative to control

K562 = experiment: Antiproliferative activity against human K562 cells assessed as inhibition of cell growth at 10 uM measured after 24 to 72 hrs by SRB method relative to control; type: functional; details: time 24-72 hrs
SR = experiment: Antiproliferative activity against human SR cells assessed as inhibition of cell growth at 10 uM by measured after 24 to 72 hrs SRB method relative to control; type: functional; details: time 24-72 hrs
HOP-62 = experiment: Antiproliferative activity against human HOP-62 cells assessed as inhibition of cell growth at 10 uM measured after 24 to 72 hrs by SRB method relative to control; type: functional; details: time 24-72 hrs
CCRF-CEM = experiment: Antiproliferative activity against human CCRF-CEM cells assessed as inhibition of cell growth at 10 uM measured after 24 to 72 hrs by SRB method relative to control; type: functional; details: time 24-72 hrs
NCI-H460 = experiment: cells; type: functional; details: Homo sapiens, time 24-72 hrs
Description: Antiproliferative activity against human NCI-H460 cells assessed as inhibition of cell growth at 10 uM measured after 24 to 72 hrs by SRB method relative to control

NCI-H226 = experiment: cells; type: functional; details: Homo sapiens, time 24-72 hrs
Description: Antiproliferative activity against human NCI-H226 cells assessed as inhibition of cell growth at 10 uM measured after 24 to 72 hrs by SRB method relative to control

HL-60 = experiment: Antiproliferative activity against human HL-60 cells assessed as inhibition of cell growth at 10 uM measured after 24 to 72 hrs by SRB method relative to control; type: functional; details: time 24-72 hrs
MOLT-4 = experiment: Antiproliferative activity against human MOLT-4 cells assessed as inhibition of cell growth at 10 uM measured after 24 to 72 hrs by SRB method relative to control; type: functional; details: time 24-72 hrs
NCI-H322M = experiment: Antiproliferative activity against human NCI-H322M cells assessed as inhibition of cell growth at 10 uM measured after 24 to 72 hrs by SRB method relative to control; type: functional; details: time 24-72 hrs
EKVX = experiment: cells; type: functional; details: Homo sapiens, time 24-72 hrs
Description: Antiproliferative activity against human EKVX cells assessed as inhibition of cell growth at 10 uM measured after 24 to 72 hrs by SRB method relative to control

HOP-92 = experiment: cells; type: functional; details: Homo sapiens, time 24-72 hrs
Description: Antiproliferative activity against human HOP-92 cells assessed as inhibition of cell growth at 10 uM measured after 24 to 72 hrs by SRB method relative to control

NCI-H522 = experiment: Antiproliferative activity against human NCI-H522 cells assessed as inhibition of cell growth at 10 uM measured after 24 to 72 hrs by SRB method relative to control; type: functional; details: time 24-72 hrs
NCI-H23 = experiment: cells; type: functional; details: Homo sapiens, time 24-72 hrs
Description: Antiproliferative activity against human NCI-H23 cells assessed as inhibition of cell growth at 10 uM measured after 24 to 72 hrs by SRB method relative to control

RPMI-8226 = experiment: Antiproliferative activity against human RPMI-8226 cells assessed as inhibition of cell growth at 10 uM measured after 24 to 72 hrs by SRB method relative to control; type: functional; details: time 24-72 hrs
SF-295 = experiment: Growth inhibition of human SF-295 cells measured after 24 to 72 hrs by SRB method; type: functional; details: time 24-72 hrs
SF-268 = experiment: Growth inhibition of human SF-268 cells measured after 24 to 72 hrs by SRB method; type: functional; details: time 24-72 hrs
SNB-19 = experiment: Growth inhibition of human SNB-19 cells measured after 24 to 72 hrs by SRB method; type: functional; details: time 24-72 hrs
U-251 = experiment: Growth inhibition of human U-251 cells measured after 24 to 72 hrs by SRB method; type: functional; details: time 24-72 hrs
A549 [4] = experiment: Induction of cell cycle arrest in human A549 cells assessed as decrease in number of cells in G0/G1 phase at 1 to 4 uM by flow cytometry analysis; type: functional, cell-based; details: dose 1-4 µM
ACHN = experiment: Growth inhibition of human ACHN cells measured after 24 to 72 hrs by SRB method; type: functional; details: time 24-72 hrs
A549 [5] = experiment: Activation of Hippo signaling pathway in human A549 cells assessed as decrease in YAP incubated for 24 hrs by Western blotting analysis; type: cell-based; details: filed as activator, dose <= 4.0 µM
A549 [6] = experiment: Induction of cell cycle arrest in human A549 cells assessed as decrease in cyclin B1 expression measured after 24 hrs by Western blot analysis; type: functional, cell-based; details: dose 1-4 µM
PC-3 [7] = experiment: Potency index, ratio of enzalutamide GI50 to test compound GI50 for growth inhibition of human PC-3 cells measured after 24 to 72 hrs by SRB method; type: functional; details: time 24-72 hrs
A549 [8] = experiment: Induction of apoptosis in human A549 cells assessed as increase in cleaved caspase-3 expression measured after 48 hrs by Western blot analysis; type: functional, cell-based; details: dose <= 4.0 µM
MCF7 = experiment: Antiproliferative activity against human MCF7 cells assessed as inhibition of cell growth at 10 uM measured after 24 to 72 hrs by SRB method relative to control; type: functional; details: time 24-72 hrs
MDA-MB-231 = experiment: Antiproliferative activity against human MDA-MB-231 cells assessed as inhibition of cell growth at 10 uM measured after 24 to 72 hrs by SRB method relative to control; type: functional; details: time 24-72 hrs
A498 = experiment: Growth inhibition of human A498 cells measured after 24 to 72 hrs by SRB method; type: functional; details: time 24-72 hrs
KM12 = experiment: Growth inhibition of human KM12 cells measured after 24 to 72 hrs by SRB method; type: functional; details: time 24-72 hrs
COLO 205 = experiment: Growth inhibition of human COLO 205 cells measured after 24 to 72 hrs by SRB method; type: functional; details: time 24-72 hrs
A549 [9] = experiment: Induction of cell cycle arrest in human A549 cells assessed as increase in p53 expression measured after 24 hrs by Western blot analysis; type: functional, cell-based; details: dose 1-4 µM
T47D = experiment: Antiproliferative activity against human T47D cells assessed as inhibition of cell growth at 10 uM measured after 24 to 72 hrs by SRB method relative to control; type: functional; details: time 24-72 hrs
A549 [10] = experiment: Induction of cell cycle arrest in human A549 cells assessed as decrease in cyclin A1 expression measured after 24 hrs by Western blot analysis; type: functional, cell-based; details: dose 1-4 µM
A549 [11] = experiment: Induction of apoptosis in human A549 cells assessed as increase in apoptotic cells measured after 48 hrs by annexin V-FITC/PI staining based flow cytometry analysis; type: functional, cell-based; details: dose 1-4 µM
A549 [12] = experiment: Induction of cell cycle arrest in human A549 cells assessed as decrease in cyclin H expression measured after 24 hrs by Western blot analysis; type: functional, cell-based; details: dose 1-4 µM
A549 [13] = experiment: Induction of apoptosis in human A549 cells assessed as increase in cleaved caspase-7 expression measured after 48 hrs by Western blot analysis; type: functional, cell-based; details: dose <= 4.0 µM
A549 [14] = experiment: Induction of cell cycle arrest in human A549 cells assessed as increase in number of cells in G2/M phase by flow cytometry analysis; type: functional, cell-based; details: dose 1-4 µM
A549 [15] = experiment: Activation of Hippo signaling pathway in human A549 cells assessed as increase in p-MOB1/MOB1 ratio at upto 4 uM incubated for 24 hrs by Western blotting analysis; type: cell-based; details: filed as activator
SK-OV-3 = experiment: Growth inhibition of human SK-OV-3 cells measured after 24 to 72 hrs by SRB method; type: functional; details: pooled result: one value given for 7 cell lines, strains, targets or settings, time 24-72 hrs
A549 [16] = experiment: Activation of Hippo signaling pathway in human A549 cells assessed as increase in […] at upto 4 uM incubated for 24 hrs by Western blotting analysis; type: cell-based; details: filed as activator
A549 [17] = experiment: Induction of apoptosis in human A549 cells assessed as decrease in caspase-3 expression measured after 48 hrs by Western blot analysis; type: functional, cell-based; details: dose <= 4.0 µM
BT-549 = experiment: Antiproliferative activity against human BT-549 cells assessed as inhibition of cell growth at 10 uM measured after 24 to 72 hrs by SRB method relative to control; type: functional; details: time 24-72 hrs
A549 [18] = experiment: Inhibition of PI3K/AKT/mTOR signalling pathway in human A549 cells assessed as inhibition of P70S6K phosphorylation measured after 24 hrs by Western blot analysis; type: cell-based; details: dose <= 4.0 µM
MDA-MB-468 = experiment: Antiproliferative activity against human MDA-MB-468 cells assessed as inhibition of cell growth at 10 uM measured after 24 to 72 hrs by SRB method relative to control; type: functional; details: time 24-72 hrs
Hs-578T = experiment: Antiproliferative activity against human Hs-578T cells assessed as inhibition of cell growth at 10 uM measured after 24 to 72 hrs by SRB method relative to control; type: functional; details: time 24-72 hrs
A549 [19] = experiment: Induction of apoptosis in human A549 cells assessed as increase in cleaved PARP expression measured after 48 hrs by Western blot analysis; type: functional, cell-based; details: dose <= 4.0 µM
A549 [20] = experiment: Induction of cell cycle arrest in human A549 cells assessed as decrease in Cdc25c expression measured after 24 hrs by Western blot analysis; type: functional, cell-based; details: dose 1-4 µM
DU-145 [21] = experiment: Potency index, ratio of enzalutamide GI50 to test compound GI50 for growth inhibition of human DU-145 cells measured after 24 to 72 hrs by SRB method; type: functional; details: time 24-72 hrs
A549 [22] = experiment: Induction of apoptosis in human A549 cells assessed as increase necrotic cell death at 1 to 4 uM measured after 48 hrs by annexin V-FITC/PI staining based flow cytometry analysis; type: functional; details: dose 1-4 µM
A549 [23] = experiment: Induction of apoptosis in human A549 cells assessed as decrease in PARP expression measured after 48 hrs by Western blot analysis; type: functional, cell-based; details: dose <= 4.0 µM

GI50 (PC-3 [1]): 22 µM
GI50 (DU-145 [2]): > 31 µM
SMILES: CNC(=O)c1ccc(N2C(=S)N(c3ccc(C#N)c(C(F)(F)F)c3)C(=O)C2(C)C)cc1F [ENZALUTAMIDE]

GI50 (MDA-MB-435): 84.3 µM
GI50 (SK-MEL-28): > 100 µM
SMILES: CN(C)/N=N/c1[nH]cnc1C(N)=O [DACARBAZINE]

SMILES: COc1ccc(C(=O)Nc2cccc(C3CCc4c(cc(OC)c(OC)c4OC)O3)c2)cc1 (stereo not given)
inhibition at 10 µM (A549 [3]): 56.6%
inhibition at 10 µM (K562): > 60%
inhibition at 10 µM (SR): > 60%
inhibition at 10 µM (HOP-62): 60.2%
inhibition at 10 µM (CCRF-CEM): > 60%
inhibition at 10 µM (NCI-H460): 74.3%
inhibition at 10 µM (NCI-H226): 69.9%
inhibition at 10 µM (HL-60): > 60%
inhibition at 10 µM (MOLT-4): > 60%
inhibition at 10 µM (NCI-H322M): 24.1%
inhibition at 10 µM (EKVX): 45.3%
inhibition at 10 µM (HOP-92): 38.7%
inhibition at 10 µM (NCI-H522): 57.3%
inhibition at 10 µM (NCI-H23): 41.1%
inhibition at 10 µM (RPMI-8226): > 60%

GI50 (U-251): > 100 µM
SMILES: Cn1nnc2c(C(N)=O)ncn2c1=O [TEMOZOLOMIDE]
GI50 (SF-295): > 100 µM
GI50 (SF-268): > 100 µM
GI50 (SNB-19): > 100 µM

GI50 (PC-3 [1]): 1.58 µM
GI50 (MDA-MB-435): 0.52 µM
GI50 (ACHN): 4.27 µM
GI50 (SK-MEL-28): 4.07 µM
GI50 (COLO 205): 2.4 µM
GI50 (SK-OV-3): 2.82 µM
GI50 (DU-145 [2]): 2.95 µM
SMILES: COc1ccc(NC(=O)c2cccc(C3CCc4c(cc(OC)c(OC)c4OC)O3)c2)cc1 (stereo not given)
inhibition at 10 µM (A549 [3]): 67.9%
inhibition at 10 µM (K562): > 60%
Activity (A549 [4]): Active
Activity (A549 [5]): Dose-Dependent Effect
inhibition at 10 µM (SR): > 60%
Activity (A549 [6]): Dose-Dependent Effect
GI50 (SF-295): 2.51 µM
inhibition at 10 µM (HOP-62): 69.3%
fold change (FC) (PC-3 [7]): 12
Activity (A549 [8]): Dose-Dependent Effect
inhibition at 10 µM (CCRF-CEM): > 60%
inhibition at 10 µM (MCF7): > 60%
inhibition at 10 µM (MDA-MB-231): > 60%
inhibition at 10 µM (NCI-H460): 81.8%
inhibition at 10 µM (NCI-H226): 52.5%
inhibition at 10 µM (HL-60): > 60%
GI50 (A498): 1.38 µM
GI50 (KM12): 3.47 µM
GI50 (SF-268): 5.13 µM
Activity (A549 [9]): Dose-Dependent Effect
inhibition at 10 µM (MOLT-4): > 60%
inhibition at 10 µM (T47D): > 60%
Activity (A549 [10]): Dose-Dependent Effect
Activity (A549 [11]): Dose-Dependent Effect
inhibition at 10 µM (NCI-H322M): 46.1%
inhibition at 10 µM (EKVX): 53%
Activity (A549 [12]): Dose-Dependent Effect
Activity (A549 [13]): Dose-Dependent Effect
Activity (A549 [14]): Dose-Dependent Effect
Activity (A549 [15]): Active
inhibition at 10 µM (HOP-92): 102%
inhibition at 10 µM (NCI-H522): 78.2%
Activity (A549 [16]): Active
Activity (A549 [17]): Dose-Dependent Effect
inhibition at 10 µM (BT-549): > 60%
inhibition at 10 µM (NCI-H23): 47.9%
inhibition (A549 [18]): Dose-Dependent Effect
inhibition at 10 µM (MDA-MB-468): > 60%
inhibition at 10 µM (Hs-578T): > 60%
inhibition at 10 µM (RPMI-8226): > 60%
Activity (A549 [19]): Dose-Dependent Effect
Activity (A549 [20]): Dose-Dependent Effect
fold change (FC) (DU-145 [21]): 12
Activity (A549 [22]): inactive
Activity (A549 [23]): Dose-Dependent Effect
